Measurements taken from ChEMBL document CHEMBL5370591, “A Potent and Narrow-Spectrum Antibacterial against Clostridioides difficile Infection” (J Med Chem, 2023).
Active and inactive are the calls of the source.

Tests used:
Clostridioides difficile [1] = test: Antibacterial activity against Clostridium difficile ATCC 43255 measured after 48 hrs by two fold serial dilution method; format: functional
THP-1 = test: Cytotoxicity against human THP-1 cells assessed as increase in LDH release incubate for 24 hrs by trypan-blue staining based analysis; format: functional, cell-based; details: THP-1, 24 h
[2] = Selectivity ratio of IC50 for human THP-1 cells to MIC for Clostridium difficile ATCC 43255; format: toxicity
HepG2 = test: Antiproliferative activity against human HepG2 cells assessed as inhibition of cell growth by XTT assay; format: functional, cell-based
[3] = Selectivity ratio of IC50 for human HepG2 cells to MIC for Clostridium difficile ATCC 43255; format: toxicity
Clostridioides difficile [4] = test: Antibacterial activity against Clostridium difficile BAA-1803 assessed as inhibition of bacterial growth by broth microdilution method; format: functional
Clostridioides difficile [5] = test: Antibacterial activity against Clostridium difficile NR49294 assessed as inhibition of bacterial growth by broth microdilution method; format: functional
Clostridioides difficile [6] = test: Antibacterial activity against Clostridium difficile NR49318 assessed as inhibition of bacterial growth by broth microdilution method; format: functional
Clostridioides difficile [7] = test: Antibacterial activity against Clostridium difficile NR49292 assessed as inhibition of bacterial growth by broth microdilution method; format: functional
Staphylococcus aureus [8] = test: Antibacterial activity against vancomycin-resistant Staphylococcus aureus clinical isolate 1 assessed as inhibition of bacterial growth by broth microdilution method; format: functional
Bacteroides fragilis = test: Antibacterial activity against Bacteroides fragilis HM-709 assessed as inhibition of bacterial growth by broth microdilution method; format: functional
Bifidobacterium longum = test: Antibacterial activity against Bifidobacterium longum HM-846 assessed as inhibition of bacterial growth by broth microdilution method; format: functional
Fusobacterium nucleatum = test: Antibacterial activity against Fusobacterium nucleatum HM-992 assessed as inhibition of bacterial growth by broth microdilution method; format: functional
Clostridioides difficile [9] = test: Antibacterial activity against Clostridium difficile ATCC 43255 assessed as as time duration of post-antibiotic effect for suppression of bacterial growth at 4 times MIC incubated for 1 hr in broth solution; format: functional
Clostridioides difficile [10] = test: Antibacterial activity against Clostridium difficile ATCC 43255 assessed as damage in cell wall at 8 time MIC incubated for 24 hrs by scanning electron microscopy based analysis; format: functional, organism-based
Clostridioides difficile [11] = test: Antibacterial activity against Clostridium difficile ATCC 43255 assessed as inhibition of bacterial growth by broth microdilution method; format: functional
Clostridioides difficile [12] = test: Antibacterial activity against Clostridium difficile BAA-1870 assessed as inhibition of bacterial growth by broth microdilution method; format: functional
Clostridioides difficile [13] = test: Antibacterial activity against Clostridium difficile NR49310 assessed as inhibition of bacterial growth by broth microdilution method; format: functional
Clostridioides difficile [14] = test: Antibacterial activity against Clostridium difficile NR49305 assessed as inhibition of bacterial growth by broth microdilution method; format: functional
Clostridioides difficile [15] = test: Antibacterial activity against Clostridium difficile NR49302 assessed as inhibition of bacterial growth by broth microdilution method; format: functional
Clostridioides difficile [16] = test: Antibacterial activity against Clostridium difficile 26675 assessed as inhibition of bacterial growth by broth microdilution method; format: functional
Clostridioides difficile [17] = test: Antibacterial activity against Clostridium difficile 23828 assessed as inhibition of bacterial growth by broth microdilution method; format: functional
Clostridioides difficile [18] = test: Antibacterial activity against Clostridium difficile 24531 assessed as inhibition of bacterial growth by broth microdilution method; format: functional
Staphylococcus aureus [19] = test: Antibacterial activity against Staphylococcus aureus ATCC 29213 assessed as inhibition of bacterial growth by broth microdilution method; format: functional
Staphylococcus aureus [20] = test: Antibacterial activity against Staphylococcus aureus ATCC 27660 assessed as inhibition of bacterial growth by broth microdilution method; format: functional
Staphylococcus aureus [21] = test: Antibacterial activity against Staphylococcus aureus NRS100 assessed as inhibition of bacterial growth by broth microdilution method; format: functional
Staphylococcus aureus [22] = test: Antibacterial activity against Staphylococcus aureus NRS119 assessed as inhibition of bacterial growth by broth microdilution method; format: functional
Staphylococcus aureus [23] = test: Antibacterial activity against Staphylococcus aureus NRS120 assessed as inhibition of bacterial growth by broth microdilution method; format: functional
Staphylococcus aureus [24] = test: Antibacterial activity against vancomycin-resistant Staphylococcus aureus clinical isolate 2 assessed as inhibition of bacterial growth by broth microdilution method; format: functional
[25] = system: Staphylococcus epidermidis; test: Antibacterial activity against Staphylococcus epidermidis ATCC 35547 assessed as inhibition of bacterial growth by broth microdilution method; format: functional
[26] = system: Staphylococcus haemolyticus; test: Antibacterial activity against Staphylococcus haemolyticus ATCC 29970 assessed as inhibition of bacterial growth by broth microdilution method; format: functional
Streptococcus oralis = test: Antibacterial activity against Streptococcus oralis ATCC 9811 assessed as inhibition of bacterial growth by broth microdilution method; format: functional
Streptococcus pyogenes = test: Antibacterial activity against Streptococcus pyogenes ATCC 49399 assessed as inhibition of bacterial growth by broth microdilution method; format: functional
Bacillus cereus = test: Antibacterial activity against Bacillus cereus ATCC 13061 assessed as inhibition of bacterial growth by broth microdilution method; format: functional
Bacillus licheniformis = test: Antibacterial activity against Bacillus licheniformis ATCC 12759 assessed as inhibition of bacterial growth by broth microdilution method; format: functional
Enterococcus faecalis [27] = test: Antibacterial activity against Enterococcus faecalis ATCC 29212 assessed as inhibition of bacterial growth by broth microdilution method; format: functional
Enterococcus faecalis [28] = test: Antibacterial activity against vancomycin susceptible Enterococcus faecalis 201 assessed as inhibition of bacterial growth by broth microdilution method; format: functional
Enterococcus faecalis [29] = test: Antibacterial activity against vancomycin resistant Enterococcus faecalis 99 assessed as inhibition of bacterial growth by broth microdilution method; format: functional
Enterococcus faecium [30] = test: Antibacterial activity against vancomycin susceptible Enterococcus faecium119-39A assessed as inhibition of bacterial growth by broth microdilution method; format: functional; details: 119-39A
Enterococcus faecium [31] = test: Antibacterial activity against vancomycin resistant Enterococcus faecium 106 assessed as inhibition of bacterial growth by broth microdilution method; format: functional
Enterococcus faecium [32] = test: Antibacterial activity against Enterococcus faecium NCTC 7171 assessed as inhibition of bacterial growth by broth microdilution method; format: functional
[33] = system: Limosilactobacillus reuteri; test: Antibacterial activity against Lactobacillus reuteri HM-102 assessed as inhibition of bacterial growth by broth microdilution method; format: functional
Lactobacillus gasseri = test: Antibacterial activity against Lactobacillus gasseri HM-644 assessed as inhibition of bacterial growth by broth microdilution method; format: functional
Veillonella = test: Antibacterial activity against Veillonella HM-49 assessed as inhibition of bacterial growth by broth microdilution method; format: functional
Eubacterium sp. = test: Antibacterial activity against Eubacterium sp. HM-178 assessed as inhibition of bacterial growth by broth microdilution method; format: functional
Klebsiella pneumoniae = test: Antibacterial activity against Klebsiella pneumoniae ATCC700603 assessed as inhibition of bacterial growth by broth microdilution method; format: functional
Acinetobacter baumannii = test: Antibacterial activity against Acinetobacter baumannii ATCC17961 assessed as inhibition of bacterial growth by broth microdilution method; format: functional
Pseudomonas aeruginosa = test: Antibacterial activity against Pseudomonas aeruginosa ATCC27853 assessed as inhibition of bacterial growth by broth microdilution method; format: functional
Klebsiella aerogenes = test: Antibacterial activity against Klebsiella aerogenes ATCC35029 assessed as inhibition of bacterial growth by broth microdilution method; format: functional
Escherichia coli = test: Antibacterial activity against Escherichia coli ATCC25922 assessed as inhibition of bacterial growth by broth microdilution method; format: functional

O=[N+]([O-])c1c[nH]c(-c2nc(-c3ccc(OC4CCC4)cc3)no2)n1
> 128 µg/mL: IC50 (THP-1)
41.9 µg/mL: IC50 (HepG2)
0.25 µg/mL: MIC (Clostridioides difficile [1])
> 512: selectivity ratio [2]
168: selectivity ratio [3]

CN[C@H](CC(C)C)C(=O)N[C@H]1C(=O)N[C@@H](CC(N)=O)C(=O)N[C@H]2C(=O)N[C@H]3C(=O)N[C@H](C(=O)N[C@H](C(=O)O)c4cc(O)cc(O)c4-c4cc3ccc4O)[C@H](O)c3ccc(c(Cl)c3)Oc3cc2cc(c3O[C@@H]2O[C@H](CO)[C@@H](O)[C@H](O)[C@H]2O[C@H]2C[C@](C)(N)[C@H](O)[C@H](C)O2)Oc2ccc(cc2Cl)[C@H]1O [VANCOMYCIN]
64 µg/mL: MIC (Staphylococcus aureus [8])
2 µg/mL: MIC (Clostridioides difficile [4])
0.25 µg/mL: MIC (Clostridioides difficile [5]) | MIC (Clostridioides difficile [6]) | MIC (Clostridioides difficile [7]) | MIC (Bifidobacterium longum) | MIC (Fusobacterium nucleatum)
16 µg/mL: MIC (Bacteroides fragilis)
3 h: Time (Clostridioides difficile [9])
active: Activity (Clostridioides difficile [10])

Oc1ccc(-c2nc(-c3ccc(OC4CCCC4)cc3)no2)cc1
18 µg/mL: IC50 (THP-1)
2 µg/mL: MIC (Clostridioides difficile [11]) | MIC (Clostridioides difficile [12]) | MIC (Clostridioides difficile [5]) | MIC (Clostridioides difficile [14]) | MIC (Clostridioides difficile [7]) | MIC (Clostridioides difficile [15]) | MIC (Staphylococcus aureus [19]) | MIC (Staphylococcus aureus [20]) | MIC (Staphylococcus aureus [23]) | MIC (Staphylococcus aureus [8]) | MIC (Staphylococcus aureus [24]) | MIC [25] | MIC [26] | MIC (Bacillus cereus) | MIC (Enterococcus faecium [30]) | MIC (Enterococcus faecium [31]) | MIC (Bacteroides fragilis) | MIC (Fusobacterium nucleatum)
> 128 µg/mL: MIC (Streptococcus oralis) | MIC (Streptococcus pyogenes) | MIC [33] | MIC (Lactobacillus gasseri) | MIC (Veillonella) | MIC (Klebsiella pneumoniae) | MIC (Acinetobacter baumannii) | MIC (Pseudomonas aeruginosa) | MIC (Klebsiella aerogenes) | MIC (Escherichia coli)
4 µg/mL: MIC (Clostridioides difficile [13]) | MIC (Clostridioides difficile [6]) | MIC (Clostridioides difficile [16]) | MIC (Clostridioides difficile [17]) | MIC (Clostridioides difficile [18]) | MIC (Bacillus licheniformis) | MIC (Enterococcus faecalis [27]) | MIC (Enterococcus faecalis [28]) | MIC (Enterococcus faecalis [29]) | MIC (Enterococcus faecium [32]) | MIC (Eubacterium sp.)
1 µg/mL: MIC (Staphylococcus aureus [21]) | MIC (Staphylococcus aureus [22]) | MIC (Bifidobacterium longum)
